Consider eight compounds from patent publication EP4740948A1 (Dong Wha Pharm. Co., Ltd., priority 2023, dated 2025).

Structures are written as SMILES. Where only a bound is given, the exact number is not on record here.

One test relates to SW-13 cells. Kind of test: Cancer cell proliferation inhibition (Cell Counting Kit-8), adrenal cancer cell line. It is filed as cell-based. As to conditions: 1000 nM, cultured seven to 11 days; for inhibition at 1 µM: Homo sapiens, SW13, 264 h, read-out: % inhibition rate SW-13; for % inhibition rate SW-13: 1 µM. How it is done:
(§1) In addition, as one example of solid cancer in which an overexpression of EZH2 and a consequent disease association therebetween is reported, a proliferation inhibitory activity of the 1,3-benzodioxole derivative compounds represented by chemical formula I of the present invention was evaluated in Lovo cells as a colorectal cancer cell line, SW-13 cells as an adrenal cancer cell line, MIA-PaCa-2 cells as a pancreatic cancer cell line, and NCI-H1299 cells as a lung cancer cell line.
(§2) Each cell line (G401 cell, MKN-45 cell, Lovo cell, SW-13 cell, MIA-PaCa-2, NCI-H1299) of Table 2 below was cultured using RPMI1640, McCoy's 5a, L-15 or DMEM containing 10% fetal bovine serum, and the cells were seeded into wells of a 96-well culture dish at 100 to 1,000 cells each, and a test substance 1000 nM was cultured for seven to 11 days after drug treatment. After the culture, the cells were measured according to a manufacturer's instructions using Cell Counting Kit-8, and a cell proliferation inhibitory effect (% inhibition rate) of the test substance was obtained.
(§3) The cell proliferation inhibitory effect (% inhibition rate) of the test substance was calculated using a following equation. % inhibition rate = {1−(testgroup/controlgroup)} X 100 [formula]
For orientation: Formazan colour is commonly taken as a measure of viable cells.

In another test the test system is Lovo cells. In words: Cancer cell proliferation inhibition (Cell Counting Kit-8), colorectal cancer cell line. The format is cell-based. Particulars: 1000 nM, cultured seven to 11 days; for inhibition at 1 µM: Homo sapiens, LoVo, 264 h, read-out: % inhibition rate LoVo. How it is done:
as §1, §2, §3

The subject of the next test is MIA-PaCa-2 cells. Kind of test: Cancer cell proliferation inhibition (Cell Counting Kit-8), pancreatic cancer cell line. The format is cell-based. As to conditions: 1000 nM, cultured seven to 11 days; for inhibition at 1 µM: Homo sapiens, MIA PaCa-2, 264 h, read-out: % inhibition rate MIA-Paca2. How it is done: as §1, §2, §3
Another test concerns NCI-H1299 cells. Kind of test: Cancer cell proliferation inhibition (Cell Counting Kit-8), lung cancer cell line. The format is cell-based. As to conditions: 1000 nM, cultured seven to 11 days; for inhibition at 1 µM: Homo sapiens, NCI-H1299, 264 h, read-out: % inhibition rate NCI-H129 9. How it is done:
as §1, §2, §3

Another test deals with EZH1 (Homo sapiens, UniProt Q92800). Kind of test: AlphaLISA enzyme activity inhibition, EZH1. The format is biochemical. As to the method: (§4) In order to confirm the EZH1 and/or EZH2 activity inhibitory effect of the 1,3-benzodioxole derivative compounds represented by chemical formula I of the present invention, the activity was measured using an AlphaLISA test method. The test substance dissolved in dimethylsulfoxide (DMSO) was diluted in a test solution (20 mM Tris pH 8.0, 0.1% BSA, 0.01% Triton X-100, 0.5 mM DTT) according to a final treatment concentration (5 nM or 10 nM) and mixed with EZH1 and EZH2, respectively, and then histone H3 peptide and S-adenosylmethionine (SAM) were added to initiate an enzyme reaction. An acceptor bead was added thereto after reaction for two hours and subjected to an additional reaction for one hour, after which a donor bead was added thereto. After an additional reaction for 30 minutes, the reaction was completed. An activity was measured using the Magellan program on a Spark10M instrument. DMSO was used as a control group, an inhibition rate of enzyme activity was calculated using a following equation, and the results thereof are shown in Table 1 below. [formula]
Chain of EZH1 (Q92800 whole entry, species assumed): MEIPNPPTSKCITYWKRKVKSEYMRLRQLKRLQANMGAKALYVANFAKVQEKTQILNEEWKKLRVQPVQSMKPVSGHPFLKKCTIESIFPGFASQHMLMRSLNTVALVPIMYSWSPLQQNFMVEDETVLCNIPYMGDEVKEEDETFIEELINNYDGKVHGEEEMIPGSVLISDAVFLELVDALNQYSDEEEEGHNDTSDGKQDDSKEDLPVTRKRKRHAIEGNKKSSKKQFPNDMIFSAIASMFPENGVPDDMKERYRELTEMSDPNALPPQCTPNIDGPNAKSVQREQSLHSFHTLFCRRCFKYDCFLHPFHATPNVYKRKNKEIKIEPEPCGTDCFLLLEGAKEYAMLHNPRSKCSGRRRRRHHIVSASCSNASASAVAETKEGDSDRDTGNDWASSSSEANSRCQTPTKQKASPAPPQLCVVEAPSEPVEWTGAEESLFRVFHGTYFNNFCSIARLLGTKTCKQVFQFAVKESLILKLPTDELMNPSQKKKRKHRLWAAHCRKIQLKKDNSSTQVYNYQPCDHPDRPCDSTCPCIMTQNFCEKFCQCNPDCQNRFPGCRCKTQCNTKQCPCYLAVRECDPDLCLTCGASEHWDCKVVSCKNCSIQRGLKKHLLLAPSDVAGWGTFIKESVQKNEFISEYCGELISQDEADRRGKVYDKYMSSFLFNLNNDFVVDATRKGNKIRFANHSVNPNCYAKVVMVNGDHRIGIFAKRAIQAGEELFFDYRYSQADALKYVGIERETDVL
Chain of EZH1 (O75530 whole entry partner, species assumed): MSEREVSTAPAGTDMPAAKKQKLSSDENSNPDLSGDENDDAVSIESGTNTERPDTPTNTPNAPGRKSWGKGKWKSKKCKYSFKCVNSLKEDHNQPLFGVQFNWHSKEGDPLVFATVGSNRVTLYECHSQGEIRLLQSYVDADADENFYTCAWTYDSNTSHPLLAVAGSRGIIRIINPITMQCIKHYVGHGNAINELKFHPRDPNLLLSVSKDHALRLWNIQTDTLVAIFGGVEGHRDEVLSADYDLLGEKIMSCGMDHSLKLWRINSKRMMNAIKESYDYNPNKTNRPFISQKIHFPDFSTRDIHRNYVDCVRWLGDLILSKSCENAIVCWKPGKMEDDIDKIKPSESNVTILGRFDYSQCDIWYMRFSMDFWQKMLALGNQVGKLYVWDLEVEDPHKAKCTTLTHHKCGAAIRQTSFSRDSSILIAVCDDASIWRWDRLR
Chain of EZH1 (Q15022 whole entry partner, species assumed): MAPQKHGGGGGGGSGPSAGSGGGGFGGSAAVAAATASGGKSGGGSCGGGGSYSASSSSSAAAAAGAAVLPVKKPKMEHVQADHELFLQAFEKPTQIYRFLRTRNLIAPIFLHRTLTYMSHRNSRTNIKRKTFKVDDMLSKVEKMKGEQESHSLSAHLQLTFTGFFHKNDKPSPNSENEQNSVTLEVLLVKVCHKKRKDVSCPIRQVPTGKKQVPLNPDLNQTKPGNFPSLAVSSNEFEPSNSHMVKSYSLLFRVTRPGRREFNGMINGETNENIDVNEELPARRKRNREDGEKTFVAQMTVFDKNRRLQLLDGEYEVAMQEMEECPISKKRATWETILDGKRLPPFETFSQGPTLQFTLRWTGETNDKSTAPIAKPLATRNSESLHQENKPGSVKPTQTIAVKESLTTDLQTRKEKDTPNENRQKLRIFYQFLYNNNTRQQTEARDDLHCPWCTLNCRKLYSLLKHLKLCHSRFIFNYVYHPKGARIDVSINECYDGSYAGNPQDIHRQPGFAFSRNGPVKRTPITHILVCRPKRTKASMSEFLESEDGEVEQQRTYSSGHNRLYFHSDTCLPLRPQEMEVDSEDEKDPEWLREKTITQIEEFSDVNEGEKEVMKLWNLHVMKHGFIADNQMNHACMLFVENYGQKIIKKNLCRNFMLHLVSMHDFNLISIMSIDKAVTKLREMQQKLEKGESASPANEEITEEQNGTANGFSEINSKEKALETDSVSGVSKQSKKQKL

A further test concerns G401 cells. In words: Cancer cell proliferation inhibition (Cell Counting Kit-8), rhabdoid tumor cell line. It is filed as cell-based. As to conditions: 1000 nM, cultured seven to 11 days; for inhibition at 1 µM: Homo sapiens, G-401, 264 h, read-out: % inhibition rate G401.
Excerpt: (§5) Among solid cancer cells, in G401 cells in which expression of SMARCB1, which is a member of switch/sucrosenon-fermenting (SWI/SNF), is defective as a cell line of a rhabdoid tumor in which a therapeutic effect may be expected through dual inhibition of EZH1/2, and MKN-45 cells in which expression of ARID1A, which is a member of SWI/SNF, is defective as a gastric cancer cell line, a proliferation inhibitory ability of the 1,3-benzodioxole derivative compounds represented by chemical formula I of the present invention was evaluated.
as §2, §3

Another test concerns the target EZH2 (Homo sapiens, UniProt Q15910). In words: AlphaLISA enzyme activity inhibition, EZH2. The format is biochemical. How it is done: as §4
(Alpha assays give light when donor and acceptor beads are brought close together.)

In another test the test system is MKN-45 cells. Kind of test: Cancer cell proliferation inhibition (Cell Counting Kit-8), gastric cancer cell line. It is filed as cell-based. Particulars: 1000 nM, cultured seven to 11 days; for inhibition at 1 µM: Homo sapiens, MKN-45, 264 h, read-out: % inhibition rate MKN -45.
Excerpt: as §5, §2, §3

Chain of EZH2 (Q15910 whole entry, species assumed): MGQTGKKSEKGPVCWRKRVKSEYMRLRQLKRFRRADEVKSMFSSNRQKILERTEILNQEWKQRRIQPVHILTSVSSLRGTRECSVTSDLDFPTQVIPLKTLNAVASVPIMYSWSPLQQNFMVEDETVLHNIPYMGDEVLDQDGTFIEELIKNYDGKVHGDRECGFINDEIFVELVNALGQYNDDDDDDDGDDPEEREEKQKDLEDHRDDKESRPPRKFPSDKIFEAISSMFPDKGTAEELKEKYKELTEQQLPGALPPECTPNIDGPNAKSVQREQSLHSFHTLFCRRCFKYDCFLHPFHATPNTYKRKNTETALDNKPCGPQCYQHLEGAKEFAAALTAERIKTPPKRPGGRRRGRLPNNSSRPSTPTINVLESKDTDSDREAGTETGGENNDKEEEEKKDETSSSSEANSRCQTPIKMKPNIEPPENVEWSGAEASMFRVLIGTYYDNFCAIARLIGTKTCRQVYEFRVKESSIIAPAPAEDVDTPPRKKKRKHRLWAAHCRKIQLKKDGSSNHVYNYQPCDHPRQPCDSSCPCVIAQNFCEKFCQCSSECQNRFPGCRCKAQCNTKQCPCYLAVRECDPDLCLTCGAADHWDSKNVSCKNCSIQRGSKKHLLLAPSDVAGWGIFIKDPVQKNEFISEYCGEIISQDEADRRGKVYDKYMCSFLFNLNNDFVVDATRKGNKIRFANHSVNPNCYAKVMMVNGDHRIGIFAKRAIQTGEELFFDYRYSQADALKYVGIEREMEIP
Chain of EZH2 (O75530 whole entry partner, species assumed): as the sequence (O75530 whole entry partner, species assumed) above
Chain of EZH2 (Q15022 whole entry partner, species assumed): as the sequence (Q15022 whole entry partner, species assumed) above

Usually inhibition stands for the share of the control response that was lost under treatment. For the compound `CSc1cc(C)[nH]c(=O)c1CNC(=O)c1cc(-c2cnc(N3C[C@@H](C)O[C@@H](C)C3)nc2)c2c(c1C)OC(C)([C@H]1CC[C@H](N(C)CC(F)(F)F)CC1)O2` (stereo partly drawn) [Compound 23, 7-(2-((2S,6R)-2,6-dimethylmorpholino)pyrimidin-5-yl)-2,4-dimethyl-2-(trans-4-(methyl(2,2,2-trifluoroethyl)amino)cyclohexyl)-N-((6-methyl-4-(methylthio)-2-oxo-1,2-dihydropyridin-3-yl)methyl)benzo[d][1,3]dioxole-5-carboxamide], the inhibition at 1 µM with SW-13 cells is no more than 30%; in the test with Lovo cells, no less than 70%; in the test with MIA-PaCa-2 cells, no more than 30%; in the test with NCI-H1299 cells, no more than 30%; with G401 cells, 30 to 70%; in the test with MKN-45 cells it was no more than 30%. The inhibition at 0.005 µM on EZH1 (5nM test substance) is 31.4%; against EZH2 (5nM test substance), 34.2%.

In the case of `CSc1cc(C)[nH]c(=O)c1CNC(=O)c1cc(-c2ccc(N3C[C@@H](C)O[C@@H](C)C3)nc2)c2c(c1C)OC(C)([C@H]1CC[C@H](N(C)C)CC1)O2` (stereo partly drawn) [Compound 1, 2-(trans-4-(dimethylamino)cyclohexyl)-7-(6-((2S,6R)-2,6-dimethylmorpholino)pyridin-3-yl)-2,4-dimethyl-N-((6-methyl-4-(methylthio)-2-oxo-1,2-dihydropyridin-3-yl)methyl)benzo[d][1,3]dioxole-5-carboxamide], the inhibition at 1 µM in the test with SW-13 cells is 30 to 70%; in the test with Lovo cells it was 30 to 70%; in the test with MIA-PaCa-2 cells, no more than 30%; in the test on NCI-H1299 cells, no more than 30%; in the test with G401 cells, 30 to 70%; in the test on MKN-45 cells it was no more than 30%. Moreover, the inhibition at 0.005 µM on EZH1 (5nM test substance) was 89.1%; on EZH2 (5nM test substance), 98.7%.

As for `CCN(C)c1ccc(-c2cc(C(=O)NCc3c(SC)cc(C)[nH]c3=O)c(C)c3c2OC(C)(C2CCN(CC(F)(F)F)CC2)O3)cn1` (single isomer, unassigned) [Compound 79, 7-(2-(ethyl(methyl)amino)pyridin-5-yl)-2,4-dimethyl-N-((6-methyl-4-(methylthio)-2-oxo-1,2-dihydropyridin-3-yl)methyl)-2-(1-(2,2,2-trifluoroethyl)piperidin-4-yl)benzo[d][1,3]dioxole-5-carboxamide], the inhibition at 1 µM in the test with SW-13 cells is 30 to 70%; in the test with Lovo cells, no less than 70%; with MIA-PaCa-2 cells it was no more than 30%; with NCI-H1299 cells, 30 to 70%; with MKN-45 cells, 30 to 70%. Moreover, the “Enzyme inhibition % EZH1” value on EZH1 (5nM test substance, 0.005 µM) is on record as 71.9%; at EZH1 (10nM test substance, 0.01 µM), 87.4%. The “% inhibition rate G401” value with G401 cells (1 µM) is listed as “+++ (+++: ≥70%)”. For the same compound, the inhibition at 0.005 µM at EZH2 (5nM test substance) turned out to be 97.1%. The compound also yielded an inhibition at 0.01 µM against EZH2 (10nM test substance) of 99.5%.

Regarding `CSc1cc(C)[nH]c(=O)c1CNC(=O)c1cc(-c2ccc(N3C[C@@H](C)O[C@@H](C)C3)nc2)c2c(c1C)OC(C)([C@H]1CC[C@H](N3CC(OCC(F)F)C3)CC1)O2` (stereo partly drawn) [Compound 104, 2-(trans-4-(3-(2,2-difluoroethoxy)azetidin-1-yl)cyclohexyl)-7-(6-((2S,6R)-2,6-dimethylmorpholino)pyridin-3-yl)-2,4-dimethyl-N-((6-methyl-4-(methylthio)-2-oxo-1,2-dihydropyridin-3-yl)methyl)benzo[d][1,3]dioxole-5-carboxamide], in the test with SW-13 cells, the “% inhibition rate SW-13” value was “++ (++: more than 30% and less than 70%)”. Besides, in the test on Lovo cells, the “% inhibition rate LoVo” value was “+++ (+++: ≥70%)”. Further, the “% inhibition rate MIA-Paca2” value in the test on MIA-PaCa-2 cells (1 µM) was “+ (+: ≤30%)”. Besides, the “% inhibition rate NCI-H129 9” value in the test on NCI-H1299 cells is on record as “+ (+: ≤30%)”. Further, the “Enzyme inhibition % EZH1” value on EZH1 (10nM test substance, 0.01 µM) stood at 19.9%. Also, in the test with G401 cells, the “% inhibition rate G401” value is “+++ (+++: ≥70%)”. In addition, the “Enzyme inhibition % EZH2” value on EZH2 (5nM test substance, 0.005 µM) is recorded as 37.0%; at EZH2 (10nM test substance, 0.01 µM), 82.6%. In addition, the “% inhibition rate MKN -45” value in the test with MKN-45 cells (1 µM) is “++ (++: more than 30% and less than 70%)”.

As to `COCCN(C)[C@H]1CC[C@H](C2(C)Oc3c(-c4ccc(N5CCC(F)(F)CC5)nc4)cc(C(=O)NCc4c(SC)cc(C)[nH]c4=O)c(C)c3O2)CC1` (relative stereo) [Compound 27, 7-(6-(4,4-difluoropiperidin-1-yl)pyridin-3-yl)-2-(trans-4-((2-methoxyethyl)(methyl)amino)cyclohexyl)-2,4-dimethyl-N-((6-methyl-4-(methylthio)-2-oxo-1,2-dihydropyridin-3-yl)methyl)benzo[d][1,3]dioxole-5-carboxamide], the inhibition at 1 µM in the test on SW-13 cells was 30 to 70%; with Lovo cells, no less than 70%; in the test with MIA-PaCa-2 cells, no more than 30%; in the test on NCI-H1299 cells, no more than 30%; with G401 cells, 30 to 70%; with MKN-45 cells, 30 to 70%. The inhibition at 0.005 µM against EZH1 (5nM test substance) was 80.2%; against EZH2 (5nM test substance), 95.8%.

Regarding `CCCCN(C)c1ccc(-c2cc(C(=O)NCc3c(SC)cc(C)[nH]c3=O)c(C)c3c2OC(C)(C2CCN(CC(F)(F)F)CC2)O3)cn1` (centres unmarked) [Compound 98, 7-(6-(butyl(methyl)amino)pyridin-3-yl)-2,4-dimethyl-N-((6-methyl-4-(methylthio)-2-oxo-1,2-dihydropyridin-3-yl)methyl)-2-(1-(2,2,2-trifluoroethyl)piperidin-4-yl)benzo[d][1,3]dioxole-5-carboxamide], the inhibition at 1 µM in the test with SW-13 cells is no more than 30%; in the test on Lovo cells it was no less than 70%; with MIA-PaCa-2 cells it was no more than 30%; in the test with NCI-H1299 cells, no more than 30%; in the test with G401 cells it was 30 to 70%; with MKN-45 cells it was 30 to 70%. Moreover, the inhibition at 0.005 µM against EZH1 (5nM test substance) turned out to be 30.9%; against EZH2 (5nM test substance), 52.2%. The inhibition at 0.01 µM against EZH1 (10nM test substance) was 17.6%; on EZH2 (10nM test substance), 48.9%.

`CCN1CCC(C2(C)Oc3c(-c4cnc(N(C)CC)nc4)cc(C(=O)NCc4c(SC)cc(C)[nH]c4=O)c(C)c3O2)CC1` (single isomer, unassigned) [Compound 84, 7-(2-(ethyl(methyl)amino)pyrimidin-5-yl)-2-(1-ethylpiperidin-4-yl)-2,4-dimethyl-N-((6-methyl-4-(methylthio)-2-oxo-1,2-dihydropyridin-3-yl)methyl)benzo[d][1,3]dioxole-5-carboxamide]: the “% inhibition rate SW-13” value with SW-13 cells is listed as “+ (+: ≤30%)”. In addition, the “% inhibition rate LoVo” value in the test with Lovo cells (1 µM) was “+ (+: ≤30%)”. Besides, the “% inhibition rate MIA-Paca2” value in the test on MIA-PaCa-2 cells is recorded as “+ (+: ≤30%)”. Also, the “% inhibition rate NCI-H129 9” value in the test on NCI-H1299 cells was “+ (+: ≤30%)”. For the same compound, in the test on G401 cells (1 µM), the “% inhibition rate G401” value is listed as “+ (+: ≤30%)”. For the same compound, the “% inhibition rate MKN -45” value in the test with MKN-45 cells is listed as “+ (+: ≤30%)”.

As to `CCN(C)c1ncc(-c2cc(C(=O)NCc3c(SC)cc(C)[nH]c3=O)c(C)c3c2OC(C)(C2CCN(CC(F)F)CC2)O3)cn1` (single isomer, unassigned) [Compound 82, 2-(1-(2,2-difluoroethyl)piperidin-4-yl)-7-(2-(ethyl(methyl)amino)pyrimidin-5-yl)-2,4-dimethyl-N-((6-methyl-4-(methylthio)-2-oxo-1,2-dihydropyridin-3-yl)methyl)benzo[d][1,3]dioxole-5-carboxamide], the “% inhibition rate SW-13” value with SW-13 cells is “+ (+: ≤30%)”. Moreover, in the test on Lovo cells, the “% inhibition rate LoVo” value is “+++ (+++: ≥70%)”. Moreover, the “% inhibition rate MIA-Paca2” value in the test with MIA-PaCa-2 cells is “+ (+: ≤30%)”. For the same compound, the “% inhibition rate NCI-H129 9” value in the test with NCI-H1299 cells is recorded as “+ (+: ≤30%)”. In addition, the “% inhibition rate G401” value in the test on G401 cells (1 µM) was “++ (++: more than 30% and less than 70%)”. The “% inhibition rate MKN -45” value in the test on MKN-45 cells (1 µM) is recorded as “+ (+: ≤30%)”.
